Patent publication US8080529B2, “Macrolides with anti-inflammatory activity” (Glaxo Group Limited, priority 2005, dated 2011)
Where two headings read alike, the source gives them in different places.

Columns and labels:
A549 = assay: Cytotoxicity assay (MTT), A549 cell line; assay type: cell-based; details: 24 h
How it was run: (§1)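 Viability was read as MTT-formazan absorbance at 490 nm after 0.5-2 h with reagent. This followed 24 h compound exposure (50 μM, 12.5 μM) at 37° C in RPM medium. Result expressed as OD490 treated over untreated cells ×100.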

IL-6 = assay: Inhibition of IL-6 production by stimulated human peripheral blood leukocytes in vitro; assay type: cell-based; details: Homo sapiens, Leukocyte, read-out: Percentage of inhibition of IL-6 production
How it was run: (§2)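 Sandwich ELISA of supernatant cytokines; % inhibition = (1 − sample/stimulated untreated control)×100. Dextran-isolated human PBL were pretreated 2 h with 10 or 50 μM compound, then challenged overnight with LPS (2 μg/mL), PMA (1 μg/mL) or zymosan (120 μg/mL).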

[1] = system: human peripheral blood mononuclear cells (PBMC); assay: Effects on human T-cell proliferation in vitro (3H-thymidine incorporation); assay type: cell-based; details: Homo sapiens, PBMC, read-out: Percentage of inhibition of proliferation of stimulated PBMC
How it was run: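 Proliferation of human peripheral blood mononuclear cells (PBMC) was assessed in the presence of test compounds. During the final 18 h of culture each well received 1 μCi of ^3H-thymidine. Cells were then collected onto a 96-well filter with a multiple cell harvester, and ^3H-thymidine incorporation was counted on a TopCount NXT to give percentage inhibition of proliferation.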

Hep G2 = assay: Cytotoxicity assay (MTT), Hep G2 cell line; assay type: cell-based; details: 24 h
How it was run: as §1

TNF-α [2] = assay: Lipopolysaccharide induced TNF-α production in Balb/cJ mice; assay type: in vivo; details: Mus musculus, ip, 1.5 h; 10 mg/kg intraperitoneally, 30 min before LPS; 90 min after LPS; read-out: % inhibition of TNF-α production (plasma)
IL-8 = assay: Inhibition of IL-8 production by stimulated human peripheral blood leukocytes in vitro; assay type: cell-based; details: Homo sapiens, Leukocyte, read-out: Percentage of inhibition of IL-8 production
How it was run: as §2

TNF-α [3] = assay: Inhibition of TNF-α production by stimulated human peripheral blood leukocytes in vitro; assay type: cell-based; details: Homo sapiens, Leukocyte, read-out: Percentage of inhibition of TNF-α production
How it was run: as §2

IL-1α = assay: Inhibition of IL-1 production by stimulated human peripheral blood leukocytes in vitro; assay type: cell-based; details: Homo sapiens, Leukocyte, read-out: Percentage of inhibition of IL-1α production

| SMILES | Percentage of inhibition of cell growth (A549; 12.5 μM) [%] | Percentage of inhibition of cell growth (A549; 50 μM) [%] | inhibition at 10 µM (IL-6; LPS-stimulated PBL) [%] | inhibition at 10 µM (IL-6; PMA-stimulated PBL) [%] | inhibition at 10 µM (IL-6; zymosan-stimulated PBL) [%] | inhibition at 50 µM (IL-6; LPS-stimulated PBL) [%] | inhibition at 50 µM (IL-6; PMA-stimulated PBL) [%] | inhibition at 50 µM (IL-6; zymosan-stimulated PBL) [%] | inhibition at 10 µM ([1]; PHA) [%] | inhibition at 50 µM ([1]; PHA) [%] | inhibition at 10 µM ([1]; PMA + iono.) [%] | inhibition at 50 µM ([1]; PMA + iono.) [%] | Percentage of inhibition of cell growth (Hep G2; 12.5 μM) [%] | Percentage of inhibition of cell growth (Hep G2; 50 μM) [%] | inhibition in vivo at 10 mg/kg (TNF-α [2]) [%] | inhibition at 10 µM (IL-8; LPS-stimulated PBL) [%] | inhibition at 10 µM (IL-8; PMA-stimulated PBL) [%] | inhibition at 10 µM (IL-8; zymosan-stimulated PBL) [%] | inhibition at 50 µM (IL-8; LPS-stimulated PBL) [%] | inhibition at 50 µM (IL-8; PMA-stimulated PBL) [%] | also measured |
| --- | --- | --- | --- | --- | --- | --- | --- | --- | --- | --- | --- | --- | --- | --- | --- | --- | --- | --- | --- | --- | --- |
| CC[C@H]1OC(=O)[C@H](C)[C@@H](O[C@H]2C[C@@](C)(OC)[C@@H](OC(=O)CCN3CCCN(CCCN4CCCC4)CC3)[C@H](C)O2)[C@H](C)[C@@H](O[C@@H]2O[C@H](C)C[C@H](N(C)C)[C@H]2O)[C@](C)(OC)C[C@@H](C)C(=O)N[C@H](C)[C@@H](O)[C@]1(C)O [Example 34] | 0 | 1 | 28 | 66 | 66 | 91 | 95 | 99 | 66 | 99 | 0 | 87 | 7 | 1 | 78 | 21 | 33 | 32 | 87 | 76 | inhibition at 50 µM (IL-8; zymosan-stimulated PBL): 81%; inhibition at 10 µM (TNF-α [3]; LPS-stimulated PBL): 55%; inhibition at 10 µM (TNF-α [3]; PMA-stimulated PBL): 86%; inhibition at 10 µM (TNF-α [3]; zymosan-stimulated PBL): 65%; inhibition at 50 µM (TNF-α [3]; LPS-stimulated PBL): 96%; inhibition at 50 µM (TNF-α [3]; PMA-stimulated PBL): 100%; inhibition at 50 µM (TNF-α [3]; zymosan-stimulated PBL): 100%; inhibition at 10 µM (IL-1α; LPS-stimulated PBL): 69%; inhibition at 10 µM (IL-1α; PMA-stimulated PBL): 86%; inhibition at 10 µM (IL-1α; zymosan-stimulated PBL): 77%; inhibition at 50 µM (IL-1α; LPS-stimulated PBL): 82%; inhibition at 50 µM (IL-1α; PMA-stimulated PBL): 100%; inhibition at 50 µM (IL-1α; zymosan-stimulated PBL): 99% |
| CC[C@H]1OC(=O)[C@H](C)[C@@H](O[C@H]2C[C@@](C)(OC)[C@@H](OC(=O)CCN(CC)CC)[C@H](C)O2)[C@H](C)[C@@H](O[C@@H]2O[C@H](C)C[C@H](N(C)C)[C@H]2O)[C@](C)(O)C[C@@H](C)CN(C)[C@H](C)[C@@H](O)[C@]1(C)O [Example 48, 4″-O-(3-diethylamino-propionyl)-azithromycin] | 0 | 0 | 57 | 30 | 73 | 97 | 84 | 97 | 93 | 100 | 81 | 100 | 0 | 9 | 52 | 36 | 25 | 49 | 85 | 83 | inhibition at 50 µM (IL-8; zymosan-stimulated PBL): 90%; inhibition at 10 µM (TNF-α [3]; LPS-stimulated PBL): 49%; inhibition at 10 µM (TNF-α [3]; PMA-stimulated PBL): 31%; inhibition at 10 µM (TNF-α [3]; zymosan-stimulated PBL): 82%; inhibition at 50 µM (TNF-α [3]; LPS-stimulated PBL): 87%; inhibition at 50 µM (TNF-α [3]; PMA-stimulated PBL): 90%; inhibition at 50 µM (TNF-α [3]; zymosan-stimulated PBL): 97%; inhibition at 10 µM (IL-1α; LPS-stimulated PBL): 64%; inhibition at 10 µM (IL-1α; PMA-stimulated PBL): 38%; inhibition at 10 µM (IL-1α; zymosan-stimulated PBL): 85%; inhibition at 50 µM (IL-1α; LPS-stimulated PBL): 79%; inhibition at 50 µM (IL-1α; PMA-stimulated PBL): 78%; inhibition at 50 µM (IL-1α; zymosan-stimulated PBL): 92% |
| CC[C@H]1OC(=O)[C@H](C)C(O[C@H]2C[C@@](C)(OC)[C@@H](OC(=O)CCN(CC)CC)[C@H](C)O2)[C@H](C)[C@@H](O[C@@H]2O[C@H](C)C[C@H](N(C)C)[C@H]2O)[C@](C)(OC)C[C@@H](C)C(=O)[C@H](C)[C@H](O)[C@]1(C)O (stereo partly drawn) [Example 49, 4″-O-(3-Diethylamino-propionyl)-6-O-methylerithromycin A] | 0 | 6 | 70 | 76 | 76 | 99 | 86 | 97 | 44 | 99 | 24 | 100 | 5 | 26 | 43 | 44 | 0 | 15 | 86 | 95 | inhibition at 50 µM (IL-8; zymosan-stimulated PBL): 54%; inhibition at 10 µM (TNF-α [3]; LPS-stimulated PBL): 69%; inhibition at 10 µM (TNF-α [3]; PMA-stimulated PBL): 37%; inhibition at 10 µM (TNF-α [3]; zymosan-stimulated PBL): 70%; inhibition at 50 µM (TNF-α [3]; LPS-stimulated PBL): 91%; inhibition at 50 µM (TNF-α [3]; PMA-stimulated PBL): 86%; inhibition at 50 µM (TNF-α [3]; zymosan-stimulated PBL): 93%; inhibition at 10 µM (IL-1α; LPS-stimulated PBL): 84%; inhibition at 10 µM (IL-1α; PMA-stimulated PBL): 35%; inhibition at 10 µM (IL-1α; zymosan-stimulated PBL): 76%; inhibition at 50 µM (IL-1α; LPS-stimulated PBL): 86%; inhibition at 50 µM (IL-1α; PMA-stimulated PBL): 84%; inhibition at 50 µM (IL-1α; zymosan-stimulated PBL): 25% |
| CC[C@H]1OC(=O)[C@H](C)[C@@H](O[C@H]2C[C@@](C)(OC)[C@@H](O)[C@H](C)O2)[C@H](C)[C@@H](O[C@@H]2O[C@H](C)C[C@H](N(C)C)[C@H]2O)[C@](C)(O)C[C@@H](C)CN(C)[C@H](C)[C@@H](O)[C@]1(C)O [azithromycin, reference compound] | 0 | 0 | 15 | 0 | 20 | 40 | 0 | 75 | 5 | 29 | 9 | 31 | 0 | 0 | 54 | 0 | 0 | 0 | 0 | 0 | inhibition at 50 µM (IL-8; zymosan-stimulated PBL): 0%; inhibition at 10 µM (TNF-α [3]; LPS-stimulated PBL): 36%; inhibition at 10 µM (TNF-α [3]; PMA-stimulated PBL): 0%; inhibition at 10 µM (TNF-α [3]; zymosan-stimulated PBL): 6%; inhibition at 50 µM (TNF-α [3]; LPS-stimulated PBL): 20%; inhibition at 50 µM (TNF-α [3]; PMA-stimulated PBL): 0%; inhibition at 50 µM (TNF-α [3]; zymosan-stimulated PBL): 64%; inhibition at 10 µM (IL-1α; LPS-stimulated PBL): 28%; inhibition at 10 µM (IL-1α; PMA-stimulated PBL): 0%; inhibition at 10 µM (IL-1α; zymosan-stimulated PBL): 20%; inhibition at 50 µM (IL-1α; LPS-stimulated PBL): 48%; inhibition at 50 µM (IL-1α; PMA-stimulated PBL): 0%; inhibition at 50 µM (IL-1α; zymosan-stimulated PBL): 75% |
